Source: patent US10519148B2, “Acrylic acid derivative, preparation method and use in medicine thereof” (Zhejiang Hisun Pharmaceutical Co., Ltd., priority 2015, dated 2019)

How the values were obtained:
[1] = system: MCF-7 human breast cancer cell line; assay: Inhibition of MCF-7 cell proliferation (CCK-8); format: cell-based; details: MCF7, MCF-7 cells, 72 hours
Procedure: 1. Reagents and Consumables
Cell Counting Reagent Kit 8 (Cell Counting Kit-8, Cat# CK04-13, Dojindo);
96-well culture plate (Cat #3599, Corning Costar);
Medium and fetal bovine serum (GIBCO);
Desktop Microplate Reader (SpectraMax M5 Microplate Reader, Molecular Devices);
MCF-7 human breast cancer cell line (purchased from Shanghai cell resource center, Chinese Academy of Sciences).
2. Preparation of Reagents
Preparation of culture medium: MEM+10% FBS+0.01 mg/ml Human recombinant insulin; Preparation of the compound: The compounds were diluted with DMSO to a final concentration of 10 mM;
(1) The logarithmic growth phase cells were collected, counted, resuspended the cells with complete culture medium. The cells were adjusted to the appropriate concentration (determined according to the cell density optimization test results) and inoculated into 96-well plates, 100 μL of cell suspension per well. The cells were incubated in an incubator for 24 hours at 37° C. with 100% relative humidity, 5% CO2; […]
(5) The absorbance at 450 nm wavelength was measured on a SpectraMax M5 Microplate Reader after gently shaking. The inhibition rate was calculated using the absorbance at 650 nm as a reference. […]

[2] = target: T1, recombinant human estrogen receptor ERα ligand binding domain (Homo sapiens, UniProt P03372); assay: LanthaScreen TR-FRET competition binding assay with estrogen receptor ERα ligand binding domain; details: TR-FRET competition with Fluormone ES2, ERα-LBD (GST); read-out: IC50 (nM) ER Reporter
T1 construct: purchased Invitrogen PV4543
T1 sequence (P03372 311-547 limits assumed): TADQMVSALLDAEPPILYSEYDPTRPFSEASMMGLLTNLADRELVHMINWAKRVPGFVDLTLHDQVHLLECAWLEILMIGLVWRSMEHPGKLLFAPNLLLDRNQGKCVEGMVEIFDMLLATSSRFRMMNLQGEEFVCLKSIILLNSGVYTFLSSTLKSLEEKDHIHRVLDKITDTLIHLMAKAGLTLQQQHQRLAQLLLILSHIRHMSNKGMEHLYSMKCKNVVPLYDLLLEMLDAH
Text: The present invention utilizes the Lantha Screen™ Time-resolved Fluorescence Resonance Energy Transfer (TR-FRET) to assess the ability of the compounds to bind to the isolated ligand domain of estrogen receptor Era in competition assay. The fluorophore (Fluormone ES2, product code P2645) and the recombinant human estrogen receptor ERα ligand binding domain (product code PV4543) using in the TR-FRET were purchased from Invitrogen. The design principle of this assay is as follows: the estrogen receptor ERα-LBD (GST) and the fluorophore-containing ligand form a receptor/fluorophore complex, followed by the addition of terbium (Tb)-labeled anti-GST antibody (product code PV3551), the indirect labeling of the receptor is achieved by the linkage with the GST on the receptor, and the ability of competitive coordination between the test compound and the fluorescent ligand with the receptor is evaluated by detecting the attenuation of the TR-FRET effect between the chromophore (Tb-anti-GST antibody) on the fluorescent label ERα and the fluorescent ligand (Fluormone ES2). We used the following sample preparation and test methods for the test of the synthesized compounds. The instrument we used is Beckman Coulter BioPAPTR FRD microfluidic workstation.
(1) Acoustic dispense 120 nL of the test compound into a black low volume 384 well assay plates;
(2) Preparation of 1×ERα-LBD/Tb-anti-GST antibody complex in ES2 buffer and incubation therein for 20 minutes;
(3) The 1×ES2 was further added to the above ERα-LBD/Tb-anti-GST antibody complex solution before the test;
(4) 12 μL of the ERα-LBD/Tb-anti-GST antibody complex solution prepared in step 3 was added to the wells of the assay plate;
(5) The plates were shielded from light and incubated at room temperature for one hour; (6) At 337 nm excitation light, the emission light at 490 nm and 520 nm was detected by BMG Phera STAR.
The test compounds of a series of concentrations (10 mM, 0.1 mM, 1 μM and 10 nM) prepared on a microplate were transferred to the analytical plate using Labcyte Echo 550. 120 nL of DMSO solution for each test compound was added to each well of the assay plate and tested at 12 different concentrations (100, 29.17, 10.42, 2.083, 1, 0.292, 0.104, 0.02083, 0.01, 0.0029, 0.00104, 0.001 μM). The TR-FRET primitive fluorescence data was used to obtain the fitting curve software such as Origin or Genedata. Half maximal inhibitory concentration IC50 of each compound was used to characterize the competitive binding ability of the test compound with the estrogen receptor ERα. IC50 represents the concentration of the test compound that was calculated when the coordination of the tracer fluorophore (ES2) with the estrogen receptor was reduced by 50%, and the IC50 was determined as shown in Table 3.

| Structure (SMILES) | IC50 [1] [nM] | IC50 [2] [nM] |
| --- | --- | --- |
| C[C@@H]1Cc2c([nH]c3cccc(F)c23)[C@@H](c2c(F)cc(/C=C/C(=O)O)cc2F)N1CC1(F)CC1 [Example 12, (E)-3-(3,5-difluoro-4-((1R,3R)-5-fluoro-2-((1-fluorocyclopropyl)methyl)-3-methyl-2,3,4,9-tetrahydro-1H-pyrido[3,4-b]indol-1-yl)phenyl)acrylic acid] | 1.45 | 0.1 to 10 |
| C[C@@H]1Cc2c([nH]c3ccccc23)[C@@H](c2c(F)cc(/C=C/C(=O)O)cc2F)N1CC1(F)CC1 [Example 1, (E)-3-(3,5-difluoro-4-((1R,3R)-2-((1-fluorocyclopropyl)methyl)-3-methyl-2,3,4,9-tetrahydro-1H-pyrido[3,4-b]indol-1-yl)phenyl)acrylic acid] | 0.34 | 0.1 to 10 |
